Measured values from ChEMBL document CHEMBL1201861, “Genomics of Drug Sensitity in Cancer screening data, Wellcome Trust Sanger Institute”.

Assays:
NCI-H1792 = assay: cells; format: functional, cell-based; conditions: Homo sapiens;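 further: growth inhibition of human NCI-H1792 cells, read out as cell viability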
Description: SANGER: Inhibition of human NCI-H1792 cell growth in a cell viability assay.

PA-1 = assay: cells; format: functional, cell-based; conditions: Homo sapiens;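 further: IC50 for suppression of PA-1 cell proliferation, determined with a cell viability read-out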
Description: SANGER: Inhibition of human PA-1 cell growth in a cell viability assay.

UO-31 = assay: cells; format: functional, cell-based; conditions: Homo sapiens
Description: SANGER: Inhibition of human U031 cell growth in a cell viability assay.

KYSE-270 = assay: cells; format: functional, cell-based; conditions: Homo sapiens;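 further: cell growth inhibition measured with a viability assay in the human KYSE-270 line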
Description: SANGER: Inhibition of human KYSE-270 cell growth in a cell viability assay.

UMC-11 = assay: cells; format: functional, cell-based; conditions: Homo sapiens;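 further: growth inhibition of UMC-11 cells, read out with a cell viability assay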
Description: SANGER: Inhibition of human UMC-11 cell growth in a cell viability assay.

NCI-H1522 = assay: cells; format: functional, cell-based; conditions: Homo sapiens;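 further: growth inhibition of NCI-H1522 cells, read out with a cell viability assay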
Description: SANGER: Inhibition of human NCI-H1522 cell growth in a cell viability assay.

KYSE-140 = assay: cells; format: functional, cell-based; conditions: Homo sapiens;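 further: cell viability assay measuring growth inhibition in human KYSE-140 cells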
Description: SANGER: Inhibition of human KYSE-140 cell growth in a cell viability assay.

A673 = assay: cells; format: functional, cell-based; conditions: Homo sapiens;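 further: growth inhibition of human A673 cells, read out through a cell viability assay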
Description: SANGER: Inhibition of human A673 cell growth in a cell viability assay.

HOS = assay: cells; format: functional, cell-based; conditions: Homo sapiens;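 further: growth inhibition of human HOS cells, read out with a cell viability assay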
Description: SANGER: Inhibition of human HOS cell growth in a cell viability assay.

NCCIT = assay: SANGER: Inhibition of human NCCIT cell growth in a cell viability assay.; format: functional, cell-based
Huh-7 = assay: cells; format: functional, cell-based; conditions: Homo sapiens;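 further: HuH-7 cell growth inhibition, read out with a cell viability assay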
Description: SANGER: Inhibition of human HuH-7 cell growth in a cell viability assay.

TCC-SUP = assay: cells; format: functional, cell-based; conditions: Homo sapiens;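 further: growth inhibition of TCC-SUP cells, read out with a cell viability assay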
Description: SANGER: Inhibition of human TCCSUP cell growth in a cell viability assay.

MKN-7 = assay: cells; format: functional, cell-based; conditions: Homo sapiens;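 further: growth inhibition of MKN-7 cells, read out with a cell viability assay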
Description: SANGER: Inhibition of human MKN7 cell growth in a cell viability assay.

UACC-893 = assay: cells; format: functional, cell-based; conditions: Homo sapiens
Description: SANGER: Inhibition of human UACC-893 cell growth in a cell viability assay.

T-24 = assay: cells; format: functional, cell-based; conditions: Homo sapiens;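 further: growth inhibition of T-24 cells, read out with a cell viability assay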
Description: SANGER: Inhibition of human T-24 cell growth in a cell viability assay.

VMRC-RCZ = assay: cells; format: functional, cell-based; conditions: Homo sapiens
Description: SANGER: Inhibition of human VMRC-RCZ cell growth in a cell viability assay.

COLO-741 = assay: cells; format: functional, cell-based; conditions: Homo sapiens
Description: SANGER: Inhibition of human COLO-741 cell growth in a cell viability assay.

ACHN = assay: cells; format: functional, cell-based; conditions: Homo sapiens;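 further: cell viability read-out used to gauge how strongly growth of human ACHN cells is suppressed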
Description: SANGER: Inhibition of human ACHN cell growth in a cell viability assay.

Calu-3 = assay: cells; format: functional, cell-based; conditions: Homo sapiens;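 further: growth inhibition of human Calu-3 cells, determined with a cell viability assay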
Description: SANGER: Inhibition of human Calu-3 cell growth in a cell viability assay.

SW13 = assay: cells; format: functional, cell-based; conditions: Homo sapiens;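 further: IC50 is inhibition of SW13 cell growth, read out with a cell viability assay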
Description: SANGER: Inhibition of human SW13 cell growth in a cell viability assay.

BFTC-905 = assay: cells; format: functional, cell-based; conditions: Homo sapiens
Description: SANGER: Inhibition of human BFTC-905 cell growth in a cell viability assay.

TUR = assay: cells; format: functional, cell-based; conditions: Homo sapiens;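 further: growth inhibition of human TUR cells, read out with a cell viability assay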
Description: SANGER: Inhibition of human TUR cell growth in a cell viability assay.

CAL-51 = assay: cells; format: functional, cell-based; conditions: Homo sapiens;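 further: human CAL-51 cell line, growth inhibition read out via a cell viability assay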
Description: SANGER: Inhibition of human CAL-51 cell growth in a cell viability assay.

CP50-MEL-B = assay: cells; format: functional, cell-based; conditions: Homo sapiens;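 further: growth inhibition of the human cell line, measured with a cell viability read-out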
Description: SANGER: Inhibition of human CP50-MEL-B cell growth in a cell viability assay.

OE33 = assay: cells; format: functional, cell-based; conditions: Homo sapiens;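 further: growth inhibition of human OE33 cells, measured by a cell viability assay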
Description: SANGER: Inhibition of human OE33 cell growth in a cell viability assay.

KP-N-YN = assay: cells; format: functional, cell-based; conditions: Homo sapiens;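 further: growth inhibition of KP-N-YN cells, read out with a cell viability assay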
Description: SANGER: Inhibition of human KP-N-YN cell growth in a cell viability assay.

KYSE-150 cell line = assay: cells; format: functional, cell-based; conditions: Homo sapiens;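 further: growth inhibition of human KYSE-150 cells, read out with a cell viability assay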
Description: SANGER: Inhibition of human KYSE-150 cell growth in a cell viability assay.

CAL-54 = assay: cells; format: functional, cell-based; conditions: Homo sapiens;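 further: growth inhibition of CAL-54 cells, read out by a viability measurement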
Description: SANGER: Inhibition of human CAL-54 cell growth in a cell viability assay.

KARPAS-422 = assay: cells; format: functional, cell-based; conditions: Homo sapiens
Description: SANGER: Inhibition of human KARPAS-422 cell growth in a cell viability assay.

RMG-I = assay: cells; format: functional, cell-based; conditions: Homo sapiens;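 further: growth inhibition of human RMG-I cells, read out with a cell viability assay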
Description: SANGER: Inhibition of human RMG-I cell growth in a cell viability assay.

NCI-H1436 = assay: cells; format: functional, cell-based; conditions: Homo sapiens;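 further: growth suppression of human NCI-H1436 cells, determined with a cell viability readout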
Description: SANGER: Inhibition of human NCI-H1436 cell growth in a cell viability assay.

JIYOYE = assay: cells; format: functional, cell-based; conditions: Homo sapiens
Description: SANGER: Inhibition of human JiyoyeP-2003 cell growth in a cell viability assay.

NCI-H2228 = assay: cells; format: functional, cell-based; conditions: Homo sapiens;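 further: growth inhibition of human NCI-H2228 cells, read out by a cell viability assay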
Description: SANGER: Inhibition of human NCI-H2228 cell growth in a cell viability assay.

CAL-12T = assay: cells; format: functional, cell-based, Homo sapiens; conditions: Homo sapiens, CAL-12T;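 further: growth inhibition of human CAL-12T cells, read out with a cell viability assay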
Description: SANGER: Inhibition of human CAL-12T cell growth in a cell viability assay.

KU-19-19 = assay: cells; format: functional, cell-based; conditions: Homo sapiens
Description: SANGER: Inhibition of human KU-19-19 cell growth in a cell viability assay.

SJRH30 = assay: cells; format: functional, cell-based; conditions: Homo sapiens;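 further: growth inhibition of human SJRH30 cells, read out with a cell viability assay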
Description: SANGER: Inhibition of human SJRH30 cell growth in a cell viability assay.

DMS-153 = assay: cells; format: functional, cell-based; conditions: Homo sapiens
Description: SANGER: Inhibition of human DMS-153 cell growth in a cell viability assay.

NCI-H1963 = assay: cells; format: functional, cell-based; conditions: Homo sapiens;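 further: cell growth inhibition of the human line, determined with a cell viability assay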
Description: SANGER: Inhibition of human NCI-H1963 cell growth in a cell viability assay.

NCI-H661 = assay: cells; format: functional, cell-based; conditions: Homo sapiens;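 further: cell viability assay read-out, IC50 being the concentration that inhibits growth of the cells by half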
Description: SANGER: Inhibition of human NCI-H661 cell growth in a cell viability assay.

G-402 = assay: cells; format: functional, cell-based; conditions: Homo sapiens
Description: SANGER: Inhibition of human G-402 cell growth in a cell viability assay.

KYSE-70 cell line = assay: cells; format: functional, cell-based; conditions: Homo sapiens;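 further: cell viability assay read-out, with IC50 expressing suppression of KYSE-70 cell growth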
Description: SANGER: Inhibition of human KYSE-70 cell growth in a cell viability assay.

PANC-03-27 = assay: cells; format: functional, cell-based; conditions: Homo sapiens
Description: SANGER: Inhibition of human PANC-03-27 cell growth in a cell viability assay.

HCC 2998 = assay: cells; format: functional, cell-based; conditions: Homo sapiens;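 further: growth inhibition of human HCC2998 cells, measured with a cell viability read-out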
Description: SANGER: Inhibition of human HCC2998 cell growth in a cell viability assay.

HEC-1 = assay: cells; format: functional, cell-based; conditions: Homo sapiens;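 further: growth inhibition of the cell line, read out with a cell viability assay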
Description: SANGER: Inhibition of human HEC-1 cell growth in a cell viability assay.

U-118-MG = assay: cells; format: functional, cell-based; conditions: Homo sapiens
Description: SANGER: Inhibition of human U-118-MG cell growth in a cell viability assay.

KOSC-2 = assay: cells; format: functional, cell-based; conditions: Homo sapiens;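 further: growth inhibition of KOSC-2 cells, read out by a cell viability assay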
Description: SANGER: Inhibition of human KOSC-2 cell growth in a cell viability assay.

K052 = assay: cells; format: functional, cell-based; conditions: Homo sapiens;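 further: Read-out from a cell viability assay, IC50 reflecting suppression of K052 cell growth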
Description: SANGER: Inhibition of human K052 cell growth in a cell viability assay.

L-540 = assay: cells; format: functional, cell-based; conditions: Homo sapiens;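 further: growth inhibition of the human L-540 cell line, read out with a viability assay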
Description: SANGER: Inhibition of human L-540 cell growth in a cell viability assay.

DMS-273 = assay: cells; format: functional, cell-based; conditions: Homo sapiens
Description: SANGER: Inhibition of human DMS-273 cell growth in a cell viability assay.

CPC-N = assay: cells; format: functional, cell-based; conditions: Homo sapiens;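 further: growth inhibition of CPC-N cells, with a cell viability assay as the readout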
Description: SANGER: Inhibition of human CPC-N cell growth in a cell viability assay.

COR-L105 = assay: cells; format: functional, cell-based; conditions: Homo sapiens
Description: SANGER: Inhibition of human COR-L105 cell growth in a cell viability assay.

HuP-T4 = assay: cells; format: functional, cell-based; conditions: Homo sapiens;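 further: cell viability assay measuring how much HuP-T4 cell growth is inhibited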
Description: SANGER: Inhibition of human HuP-T4 cell growth in a cell viability assay.

ARH-77 = assay: cells; format: functional, cell-based; conditions: Homo sapiens;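 further: growth inhibition of ARH-77 cells, read out by a cell viability assay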
Description: SANGER: Inhibition of human ARH-77 cell growth in a cell viability assay.

IGR-1 = assay: cells; format: functional, cell-based; conditions: Homo sapiens;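 further: growth inhibition of human IGR-1 cells, read out with a cell viability assay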
Description: SANGER: Inhibition of human IGR-1 cell growth in a cell viability assay.

HPAF-II = assay: cells; format: functional, cell-based; conditions: Homo sapiens;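 further: growth inhibition of HPAF-II cells, read out with a cell viability assay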
Description: SANGER: Inhibition of human HPAF-II cell growth in a cell viability assay.

BFTC-909 = assay: cells; format: functional, cell-based; conditions: Homo sapiens
Description: SANGER: Inhibition of human BFTC-909 cell growth in a cell viability assay.

NCI-H1755 = assay: cells; format: functional, cell-based; conditions: Homo sapiens;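 further: cell viability readout used to measure growth inhibition of NCI-H1755 cells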
Description: SANGER: Inhibition of human NCI-H1755 cell growth in a cell viability assay.

WSU-NHL = assay: cells; format: functional, cell-based; conditions: Homo sapiens;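 further: growth inhibition of human WSU-NHL cells, read out with a cell viability assay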
Description: SANGER: Inhibition of human WSU-NHL cell growth in a cell viability assay.

CHP-212 = assay: cells; format: functional, cell-based; conditions: Homo sapiens
Description: SANGER: Inhibition of human CHP-212 cell growth in a cell viability assay.

MHH-ES-1 = assay: cells; format: functional, cell-based; conditions: Homo sapiens
Description: SANGER: Inhibition of human MHH-ES-1 cell growth in a cell viability assay.

EB-3 = assay: cells; format: functional, cell-based; conditions: Homo sapiens;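 further: human EB-3 cells, growth inhibition read out via a cell viability assay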
Description: SANGER: Inhibition of human EB-3 cell growth in a cell viability assay.

NCI-H2030 = assay: cells; format: functional, cell-based; conditions: Homo sapiens;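 further: growth inhibition of human NCI-H2030 cells, read out by a cell viability assay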
Description: SANGER: Inhibition of human NCI-H2030 cell growth in a cell viability assay.

HT-29 = assay: cells; format: functional, cell-based; conditions: Homo sapiens;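 further: growth inhibition of human HT-29 cells, read out by a cell viability assay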
Description: SANGER: Inhibition of human HT-29 cell growth in a cell viability assay.

NCI-H2170 = assay: cells; format: functional, cell-based; conditions: Homo sapiens;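 further: cell viability assay measuring growth inhibition of human NCI-H2170 cancer cells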
Description: SANGER: Inhibition of human NCI-H2170 cell growth in a cell viability assay.

Measured: IC50

N#C/C(=C1/Nc2ccccc2S1)c1ccnc(NCCc2cccnc2)n1
2.35 µM: ACHN
5.3 µM: CAL-51
3.37 µM: BFTC-905
2.9 µM: PANC-03-27
4.48 µM: NCI-H2228
1.3 µM: CAL-12T
7.2 µM: UO-31
4.68 µM: IGR-1
1.53 µM: PA-1
5.97 µM: KYSE-270
4.27 µM: HT-29
4.44 µM: HuP-T4
4.06 µM: KYSE-70 cell line
1.49 µM: DMS-273
1.77 µM: COR-L105
1.41 µM: KYSE-140
7.77 µM: VMRC-RCZ
3.17 µM: HCC 2998
> 8 µM: all other assays above

C/C(O)=C(\C#N)C(=O)Nc1cc(Br)ccc1Br
> 16 µM: all assays above

CC(O)(CS(=O)(=O)c1ccc(F)cc1)C(=O)Nc1ccc(C#N)c(C(F)(F)F)c1 (stereo not given) [BICALUTAMIDE]
> 1.02 µM: all assays above

CC(C)=CC[C@@H](O)C1=CC(=O)c2c(O)ccc(O)c2C1=O [SHIKONIN]
3.63 µM: BFTC-909
2.42 µM: KYSE-70 cell line
0.519 µM: NCI-H1522
0.186 µM: HOS
1.14 µM: EB-3
0.901 µM: NCI-H2228
2.21 µM: MKN-7
0.604 µM: NCI-H1436
1.9 µM: CAL-12T
1.42 µM: CAL-54
0.645 µM: HT-29
0.554 µM: TCC-SUP
0.563 µM: NCI-H2030
1.13 µM: HEC-1
0.23 µM: COR-L105
1.11 µM: Calu-3
0.154 µM: IGR-1
0.167 µM: PANC-03-27
0.873 µM: ARH-77
1.72 µM: NCI-H2170
1.43 µM: CP50-MEL-B
0.902 µM: KYSE-150 cell line
0.217 µM: KYSE-270
1.1 µM: K052 | CHP-212
2.69 µM: COLO-741
4.9 µM: L-540
1.49 µM: KOSC-2
0.882 µM: G-402
0.466 µM: TUR
1.22 µM: A673
1.36 µM: HuP-T4
0.517 µM: NCCIT
1.96 µM: Huh-7
0.284 µM: BFTC-905
0.771 µM: UO-31
0.374 µM: KYSE-140
0.26 µM: WSU-NHL
0.547 µM: VMRC-RCZ
0.146 µM: ACHN
0.0209 µM: CAL-51
0.396 µM: DMS-273
0.1 µM: NCI-H1963
1.81 µM: OE33
1.41 µM: SW13
0.689 µM: MHH-ES-1
2.46 µM: T-24
3.18 µM: KU-19-19
5.43 µM: NCI-H661
1.39 µM: JIYOYE
0.842 µM: U-118-MG
0.201 µM: PA-1
0.369 µM: SJRH30
0.864 µM: RMG-I
1.27 µM: HPAF-II
not listed: KP-N-YN
> 16 µM: all other assays above
